Values quoted from earlier work in patent publication US20160102058A1, “FLUORO-PERHEXILINE COMPOUNDS AND THEIR THERAPEUTIC USE” (THE UNIVERSITY COURT OF THE UNIVERSITY OF ABERDEEN, priority 2013, published 2016).

Tests used:
hepatocytes = settings: cited from earlier work
[1] = cited from earlier work
CPT-2 = settings: read-out: inhibition of CPT-2; cited from earlier work
[2] = elderly patients with aortic stenosis unsuitable for valve replacement; cited from earlier work
CPT-1 = target: T1, CPT-1 (Rattus norvegicus, UniProt Q63704); settings: rat cardiac mitochondria; cited from earlier work
T1 construct: host or cells: rat cardiac mitochondria
T1 sequence (Q63704 1-772): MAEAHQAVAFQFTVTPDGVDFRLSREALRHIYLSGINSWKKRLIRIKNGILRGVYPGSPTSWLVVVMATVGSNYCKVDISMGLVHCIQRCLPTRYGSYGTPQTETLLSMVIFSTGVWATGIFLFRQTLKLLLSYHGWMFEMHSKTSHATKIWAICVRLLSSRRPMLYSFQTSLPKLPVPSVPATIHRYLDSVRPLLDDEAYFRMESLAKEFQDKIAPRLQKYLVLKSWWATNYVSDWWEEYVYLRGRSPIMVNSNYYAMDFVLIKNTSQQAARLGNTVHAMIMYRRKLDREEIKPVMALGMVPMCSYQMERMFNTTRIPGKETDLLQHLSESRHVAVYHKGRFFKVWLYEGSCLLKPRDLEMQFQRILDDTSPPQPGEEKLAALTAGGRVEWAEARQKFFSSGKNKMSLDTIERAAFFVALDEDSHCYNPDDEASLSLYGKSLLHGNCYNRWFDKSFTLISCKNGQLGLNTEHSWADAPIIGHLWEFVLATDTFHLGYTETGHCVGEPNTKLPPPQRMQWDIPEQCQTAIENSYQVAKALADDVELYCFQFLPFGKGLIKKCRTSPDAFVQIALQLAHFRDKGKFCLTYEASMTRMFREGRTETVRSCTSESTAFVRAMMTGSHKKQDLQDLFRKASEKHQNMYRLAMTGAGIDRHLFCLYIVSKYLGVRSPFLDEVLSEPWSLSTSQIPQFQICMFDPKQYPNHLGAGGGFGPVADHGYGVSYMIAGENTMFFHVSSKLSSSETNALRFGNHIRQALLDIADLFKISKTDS

[3] = in comparison with nitroglycerin; cited from earlier work
[4] = EM versus PM; cited from earlier work

C1CCC(C(CC2CCCCN2)C2CCCCC2)CC1 (centres unmarked) [Perhexiline, 2-(2,2-dicyclohexylethyl)piperidine]
inhibition of fatty acid oxidation in hepatocytes (hepatocytes): 22 µM
plasma perhexiline to metabolite ratio, patients without toxicological side-effects ([1]; patients who showed no side-effects): 0.3
plasma perhexiline to metabolite ratio, patients with side-effects ([1]; patients who showed side-effects): 2.8
IC50 (CPT-2): 79 µM
patients with clear symptomatic improvement [2]: 13 out of 15
IC50 (CPT-1): 77 µM
reduction in the symptoms of angina [3]: greater than 50%
difference in perhexiline clearance and required dosage between EM and PM patients [4]: ~100 fold
